In assay [1] the test system is human fibroblast cells. The assay is described as follows: Elastin production by fibroblast cells. Format: cell-based. The text has this:
(§1) Experiments generally following the methodology of Boote et al., Biochimica et Biophysica Acta, Volume 607, pages 145-160 (1980), have shown that while control human fibroblast cells have copious collagen production, treatment with the compounds of the invention provides human fibroblast cells with suppressed collagen production and with an about 30% increase in elastin production over control cells.
(§2) Wrinkling of the skin involves the decreased formation of elastin and the increased formation of collagen by supporting cells, predominantly the fibroblasts.

Assay [2] has as its system human fibroblast cells. The assay can be described thus: Collagen production by fibroblast cells. It counts as cell-based. The following applies: treated vs control cells.
Text: as §1, §2

The subject of assay [3] is estrogen receptor (keloid cytosol). The assay is described as follows: Keloid cytosol steroid binding assay, estrogen. On the set-up: species or system human.

Entries after “also recorded” stand apart in the source; their conditions may differ.

As to `CCOC(CC)CCCCC1CCC2CC(=O)CC12` (stereo not drawn) [Compound VI, 2-(5-ethoxyhept-1-yl)bicyclo[3.3.0]octan-7-one], the formation of elastin result with human fibroblast cells [1] (Example 45) is “massive observable increase in the formation of elastin”. Also, in the assay on human fibroblast cells [1] (treated vs control (non-treated) fibroblast cells), the “increase in elastin production over control cells” value is reported as about 30%. For the same compound, the collagen production/formation result in the assay on human fibroblast cells [2] is “decrease in collagen production; also recorded: decreased”.
With Estrogen, the “estrogen binding, male patients” value in assay [3] (male patients) is on record as “neither detectable”. Further, the “Binding of Estrogen” value in assay [3] (patient 1) turned out to be 9; in assay [3] (patient 2) it was 4.

The record behind these values is patent US4689345A, “Oxygenated alkyl substituted bicyclo alkanes” (CBD Corporation, priority 1986, dated 1987).
